In ChEMBL document CHEMBL2331142, “Synthesis of new triazole acetamides with inotropic effects” (Bioorg Med Chem Lett, 2013):
Calls of active or inactive are those of the source. The calls are words filed in the database; no cut-off is given here.

Key:
[1] = (§1) Positive inotropic effect in rabbit left atrium assessed as increase in stroke volume at 3 x 10^-5 M measured for 2 mins relative to control; format: functional, Oryctolagus cuniculus, Cardiac atrium
Oryctolagus cuniculus [2] = species on record: Oryctolagus cuniculus; test: as §1; format: functional; conditions: Cardiac atrium
Oryctolagus cuniculus [3] = species on record: Oryctolagus cuniculus; test: Chronotropic effect in rabbit heart assessed as change in heart rate at 3 x 10^-5 M by electrocardiogram analysis relative to control; format: ADME, organism-based; conditions: in vivo, 30 µM
Oryctolagus cuniculus [4] = species on record: Oryctolagus cuniculus; test: Positive inotropic effect in rabbit left atrium assessed as increase in stroke volume at 1 x 10^-4 M measured for 2 mins; format: functional, tissue-based; conditions: Cardiac atrium
[5] = Ratio of compound activity to milrinone activity for increase in stroke volume in rabbit left atrium at 3 x 10^-5 M; format: functional, Oryctolagus cuniculus, Cardiac atrium

SMILES | Activity [1] [%] | further results
O=C(CN1CCN(Cc2cccc(F)c2)CC1)Nc1ccc2c(c1)CCc1nnc(-c3cccc(Cl)c3)n1-2 | 6.33 | –
O=C(CN1CCN(Cc2ccc(Cl)c(Cl)c2)CC1)Nc1ccc2c(c1)CCc1nnc(-c3cccc(Cl)c3)n1-2 | – | Activity (Oryctolagus cuniculus [2]): inactive
O=C(CN1CCN(Cc2ccccc2Br)CC1)Nc1ccc2c(c1)CCc1nnc(-c3cccc(Cl)c3)n1-2 | – | Activity (Oryctolagus cuniculus [2]): inactive
O=C(CN1CCN(Cc2ccccc2F)CC1)Nc1ccc2c(c1)CCc1nnc(-c3ccccc3Cl)n1-2 | 2.39 | –
O=C(CN1CCN(Cc2ccc(Cl)cc2)CC1)Nc1ccc2c(c1)CCc1nnc(-c3cccc(Cl)c3)n1-2 | 7.22 | –
O=C(CN1CCN(Cc2ccccc2)CC1)Nc1ccc2c(c1)CCc1nnc(-c3cccc(Cl)c3)n1-2 | 8.07 | –
COc1ccc(CN2CCN(CC(=O)Nc3ccc4c(c3)CCc3nnc(-c5cccc(Cl)c5)n3-4)CC2)cc1 | 16.84 | Activity (Oryctolagus cuniculus [3]): Non-toxic; Activity (Oryctolagus cuniculus [4]): Active
O=C(CN1CCN(Cc2ccccc2Cl)CC1)Nc1ccc2c(c1)CCc1nnc(-c3cccc(Cl)c3)n1-2 | 0.8 | –
O=C(CN1CCN(Cc2ccc(F)cc2)CC1)Nc1ccc2c(c1)CCc1nnc(-c3cccc(Cl)c3)n1-2 | 16.49 | Activity (Oryctolagus cuniculus [3]): Non-toxic
O=C(CN1CCN(Cc2ccc(Br)cc2)CC1)Nc1ccc2c(c1)CCc1nnc(-c3cccc(Cl)c3)n1-2 | 2.31 | –
CCCCCCCCN1CCN(CC(=O)Nc2ccc3c(c2)CCc2nnc(-c4cccc(Cl)c4)n2-3)CC1 | – | Activity (Oryctolagus cuniculus [2]): inactive
CCCCCCN1CCN(CC(=O)Nc2ccc3c(c2)CCc2nnc(-c4cccc(Cl)c4)n2-3)CC1 | – | Activity (Oryctolagus cuniculus [2]): inactive
O=C(CN1CCN(Cc2cccc(Cl)c2)CC1)Nc1ccc2c(c1)CCc1nnc(-c3ccccc3Cl)n1-2 | 2.18 | –
O=C(CN1CCN(Cc2cccc(Br)c2)CC1)Nc1ccc2c(c1)CCc1nnc(-c3cccc(Cl)c3)n1-2 | – | Activity (Oryctolagus cuniculus [2]): inactive
O=C(CN1CCN(Cc2ccccc2F)CC1)Nc1ccc2c(c1)CCc1nnc(-c3cccc(Cl)c3)n1-2 | 20.29 | Activity (Oryctolagus cuniculus [3]): Non-toxic; Ratio [5]: 8.2; Activity (Oryctolagus cuniculus [4]): Active
Cc1ccc(CN2CCN(CC(=O)Nc3ccc4c(c3)CCc3nnc(-c5cccc(Cl)c5)n3-4)CC2)cc1 | 4.25 | –
CCCCCN1CCN(CC(=O)Nc2ccc3c(c2)CCc2nnc(-c4cccc(Cl)c4)n2-3)CC1 | 0.8 | –
CCCCN1CCN(CC(=O)Nc2ccc3c(c2)CCc2nnc(-c4cccc(Cl)c4)n2-3)CC1 | 2.33 | –
O=C(CN1CCN(Cc2ccc(Cl)cc2Cl)CC1)Nc1ccc2c(c1)CCc1nnc(-c3cccc(Cl)c3)n1-2 | – | Activity (Oryctolagus cuniculus [2]): inactive
O=C(CN1CCN(Cc2cccc(Cl)c2)CC1)Nc1ccc2c(c1)CCc1nnc(-c3cccc(Cl)c3)n1-2 | 15.75 | Activity (Oryctolagus cuniculus [3]): Toxic
O=C(CN1CCN(Cc2ccccc2)CC1)Nc1ccc2c(c1)CCc1nnc(-c3ccccc3Cl)n1-2 | 15.62 | Activity (Oryctolagus cuniculus [3]): Non-toxic
Cc1[nH]c(=O)c(C#N)cc1-c1ccncc1 [MILRINONE] | 2.46 | –
COc1ccc(CN2CCN(CC(=O)Nc3ccc4c(c3)CCc3nnc(-c5ccccc5Cl)n3-4)CC2)cc1 | 9.12 | –
O=C(CN1CCN(Cc2ccc(F)cc2)CC1)Nc1ccc2c(c1)CCc1nnc(-c3ccccc3Cl)n1-2 | 4.58 | –
